Activity calls are given as the source filed them. No cut-off for these calls is given here.
Experiments:
[1] = target: Human immunodeficiency virus type 1 reverse transcriptase (Human immunodeficiency virus 1) (UniProt Q72547); assay: In vitro effective dose for the inhibition of human immunodeficiency virus (HIV) reverse transcriptase in MT-4 and peripheral lymphocyte (PBL) cell cultures; NI is No Inhibition up to a concentration of 100 uM; type: functional
[2] = tested on: MT4; assay: Anti HIV-l activity in infected MT-4 cells cultures; type: functional; conditions: Homo sapiens, read-out: ED50 (the source's name)
[3] = tested on: MT4; assay: Activity in HIV-l infected MT-4 cells cultures; No activity; type: functional, cell-based; conditions: Homo sapiens
[4] = tested on: MT4; assay: Anti HIV-l activity in infected MT-4 cells cultures; NA is NO Activity; type: functional, cell-based; conditions: Homo sapiens
[5] = target: Human immunodeficiency virus type 1 reverse transcriptase (Human immunodeficiency virus 1) (UniProt Q72547); assay: Tested for percent inhibition of the human immunodeficiency virus (HIV) reverse transcriptase in MT-4; type: functional

Which ED50 [1] does the source give for `Nc1ncnc2c1ncn2C/C=C\CCOP(=O)(O)OP(=O)(O)OP(=O)(O)O` here?
The ED50 was “No inhibition”.

How did the EC50 [2] turn out when `Nc1ncnc2c1ncn2C/C=C\COCP(=O)(O)O` was run?
The EC50 was 9 µM.

How did the ED50 [3] turn out when `Nc1ncnc2c1ncn2C/C=C\CO` was run?
Its ED50 is “inactive”.

For `Cc1cn(C/C=C\COCP(=O)(O)O)c(=O)[nH]c1=O`, which ED50 [4] is on record?
Its ED50 is “inactive”.

With `Nc1ccn(C/C=C\COCP(=O)(O)OP(=O)(O)OP(=O)(O)O)c(=O)n1` as the compound, how does the ED50 [5] read?
Its ED50 is 50 µM.

With `Nc1ccn(C/C=C\COCP(=O)(O)O)c(=O)n1` as the compound, how does the ED50 [4] read?
The ED50 was “inactive”.

With `Nc1nc(O)c2ncn(C/C=C\COCP(=O)(O)O)c2n1` as the compound, how does the ED50 [4] read?
Its ED50 is “inactive”.

Reference: ChEMBL document CHEMBL1127390, “Novel acyclic nucleotides and nucleoside 5'-triphosphates imitating 2',3'-dideoxy-2',3'-didehydronucleotides: synthesis and biological properties” (1994)
